Read-outs that look alike come from different tables or passages of the source.
Assays:
[1] = biological target: T1, CYP3A4 (Homo sapiens, UniProt P08684); test: Human Cytochrome P450 Inhibition Assay (Bactosomes), CYP3A4; assay type: in vitro ADME; conditions: recombinant Bactosomes, probe substrate, 10 minutes at 37° C.
T1 construct: purchased Cypex Ltd, Dundee, Scotland UK
Protocol: The ability of test compounds to inhibit five of the most relevant cytochrome P450 enzymes was measured by determination of the activity of cytochrome P450 enzymes in recombinant cytochrome preparations, called Bactosomes (Cypex Ltd, Dundee, Scotland UK DD2 1NH), in the presence of a specific probe substrate. Bactosomes are a highly efficient and cost-effective source of recombinant CYP450s which have a higher specific activity of enzyme compared to other sources, such as liver microsomes. […] The following CYP450 isoforms were assayed: CYP1A2, CYP2C9, CYP2C19, CYP2D6 and CYP3A4. The study of CYP450 inhibition potential in Bactosomes is accepted as a valuable model permitting rapid prediction of potential drug-drug interactions in vivo (see, e.g., Weaver et al., 2003).
Bactosomes were obtained from a commercial source (Cypex, Scotland, UK). Test compounds were incubated with Bactosomes at 6 concentrations. Samples were incubated for 10 minutes, after which the reaction was stopped and the samples analysed by LC-MS/MS Multiple Reaction Monitoring (MRM) for the presence/amount of substrate probe.
CYP450 enzymes (final protein 75 pmol/mL for CYP1A2; 12.5 pmol/mL for CYP2C19; and 25 pmol/mL for CYP2C9, 2D6 and 3A4), 0.1 M phosphate buffer pH 7.4, probe and test compound (final concentration 50, 15.8, 5, 1.58, 0.5 and 0.158 μM; diluted from 10 mM stock solution to give a final DMSO concentration of 1%) were pre-incubated at 37° C. for 5 minutes. The reaction was initiated by the addition of 20 μL of 10 mM NADPH in phosphate buffer. The final incubation volume was 200 μL. The following control inhibitors were used for each CYP450 inhibition assay: CYP1A2: α-naphthoflavone; CYP2C9: sulfaphenazole; CYP2C19: tranylcypromine; CYP2D6: quinidine; CYP3A4: ketoconazole.
Each compound was incubated for 10 minutes at 37° C. The reactions were stopped by the addition of methanol (final composition 1:1, aqueous: methanol). The incubation plates were shaken, chilled at […] for 2 hours, and centrifuged at 3500 rpm for 15 minutes at 4° C. to precipitate the protein.
IC50 values were determined by linear transformation within Microsoft Excel.

[2] = Rodent Pharmacokinetics Studies; assay type: in vivo, rat; conditions: for bioavailability / half-life: rat, plasma; for bioavailability: read-out: Bioavail, F (%)
Protocol: Absorption and metabolic stability were studied using an in vivo pharmacokinetics assay.
[…] […] For compound HMC-C-01-A the oral administration was formulated in 2% dimethylacetamide/20% hydroxypropyl-β-cyclodextrin in water. Animals were given free access to food throughout the study except for fasting overnight and until 2 hours post dose on the day of dosing.
Blood samples were taken from the retro-orbital plexus at the following time points and placed in microtubes containing 20% K2EDTA solution: […]
Blood samples were centrifuged to obtain plasma, which was transferred to a separate container and frozen at −20° C.
For analysis, samples were thawed at room temperature and prepared by protein precipitation with acetonitrile spiked with internal standard (500 ng/mL glipizide) in the ratio 1:4 with plasma. The samples were then vortexed for 5 minutes and centrifuged for 10 minutes at 20,600×g at 4° C. 100 μL of the supernatant was collected for analysis.
The pharmacokinetic parameters for the test compounds were calculated by Phoenix WinNonlin version 6.3 (Pharsight Corp, CA) using standard non-compartmental methods. Peak plasma concentrations (Cmax) and time of the peak plasma concentration (Tmax) were the observed values. The area under the plasma concentration-time curve (AUC) was determined by use of the linear trapezoidal rule up to the last measurable concentration (AUClast) and thereafter by extrapolation of the terminal elimination phase to infinity (AUCinf). The terminal elimination rate constant (kel) was determined by regression analysis of the linear terminal portion of the log plasma concentration-time curve. The elimination phase half-life (t1/2) was calculated as 0.693/kel.

[3] = system: mice with collagen-induced arthritis; test: Mouse Collagen-Induced Arthritis; assay type: in vivo; conditions: for % inhibition of disease: oral gavage once daily for 14 days, arthritic index vs control
Protocol: Seven- to eight-week-old male DBA/1j mice were used for all procedures. Animals were housed in groups of 10, and were maintained at 21° C.±2° C. on a 12-hour light/dark cycle with food and water ad libitum. Complete Freund's adjuvant (CFA) was prepared by emulsifying bovine type II collagen at 4 mg/mL with a 4 mg/mL suspension of Mycobacterium tuberculosis H37Ra in Incomplete Freund's adjuvant (IFA) (0.85 mL paraffin oil and 0.15 mL mannide monooleate) in a 1:1 (v/v) ratio. All mice were immunised subcutaneously with 200 μg of bovine type II collagen in CFA. 21 days later, all mice were immunised subcutaneously with 100 μg of bovine type II collagen in IFA. The mice started to develop signs and symptoms of arthritis following the ‘booster’ immunisation.
For macroscopic assessment of arthritis, the following signs were monitored in each paw of each mouse three times per week and summed to generate the Arthritic Index (AI) (the maximum AI for one animal is 16): • 0=no visible effects of arthritis. • 1=oedema and/or erythema of 1 digit. • 2=oedema and/or erythema of 2 digits. • 3=oedema and/or erythema of more than 2 digits. • 4=severe arthritis of entire paw and digits.
Animals were sorted into treatment groups with a mean arthritic index of 2.5 and then dosed once daily for 14 days with compound by oral gavage for test compounds, or by subcutaneous injection at a dose of 10 mg/kg for the positive control, etanercept. After completion of the experiment, the mice were sacrificed.
The data were analysed by generating an average of the arthritic index across each treatment group. The mean arthritic index was then compared to the arthritic index of control (untreated) animals using the following formula to generate a percentage inhibition of disease.

[4] = male Han Wistar rats, 1 mg/kg intravenous, 5% DMSO/10% solutol in saline
[5] = male Han Wistar rats, 5 mg/kg orally, 0.5% CMC/0.1% Tween-80
[6] = 5 mg/kg, male Han Wistar rats, oral in 0.5% CMC/0.1% Tween-80, i.v. in 5% DMSO/10% solutol in saline

T1 sequence (P08684 whole entry): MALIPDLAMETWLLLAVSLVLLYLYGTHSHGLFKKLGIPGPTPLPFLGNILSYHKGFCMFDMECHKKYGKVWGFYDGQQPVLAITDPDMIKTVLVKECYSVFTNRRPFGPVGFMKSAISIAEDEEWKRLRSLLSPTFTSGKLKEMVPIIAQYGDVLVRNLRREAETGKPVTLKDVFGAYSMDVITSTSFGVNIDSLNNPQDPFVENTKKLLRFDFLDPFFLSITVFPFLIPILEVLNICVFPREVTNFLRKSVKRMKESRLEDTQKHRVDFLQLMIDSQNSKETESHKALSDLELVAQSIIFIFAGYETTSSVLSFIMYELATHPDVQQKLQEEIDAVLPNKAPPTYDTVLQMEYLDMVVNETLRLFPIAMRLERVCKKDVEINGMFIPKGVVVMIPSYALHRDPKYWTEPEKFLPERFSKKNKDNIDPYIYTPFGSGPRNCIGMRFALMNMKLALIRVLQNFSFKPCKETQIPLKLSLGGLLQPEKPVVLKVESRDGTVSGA

## O=S(=O)(N[C@H]1CC[C@H](O)CC1)c1ccc(-c2ccc(F)cc2F)cc1 [ABD599, reference compound]
[1]
  IC50: > 25 µM

## Cc1cc(S(=O)(=O)N[C@H]2CC[C@H](O)CC2)ccc1-c1ccc(F)cc1F [ABD735, reference compound]
[1]
  IC50: > 25 µM
[2]; [4]
  i.v. AUC: 1081 ng/mL/min
[2]; [5]
  p.o. AUC (ng/mL/min): 8965 ^(4) ng/mL/min
[2]; [6]
  bioavailability: 83%
[3]; 10 mg/kg/day
  % inhibition of disease: 44%

## C[C@]1(O)CC[C@@H](NS(=O)(=O)c2ccc(-c3ccc(F)cc3F)cc2)CC1 [ABD899, reference compound]
[1]
  IC50: 21.6 µM
[2]; [4]
  i.v. AUC: 2133 ng/mL/min
[2]; [5]
  p.o. AUC (ng/mL/min): 10740 ^(4) ng/mL/min
[2]; [6]
  bioavailability: 50%
[3]; 10 mg/kg/day
  % inhibition of disease: 77%

## C[C@]1(O)CC[C@H](NS(=O)(=O)c2ccc(-c3ccc(C#N)cc3)c(F)c2)CC1 [HMC-C-07-A, 4′-Cyano-2-fluoro-N-((1r,4r)-4-hydroxy-4-methylcyclohexyl)-[1,1′-biphenyl]-4-sulfonamide]
[1]
  IC50: > 50 µM

## C[C@]1(O)CC[C@@H](NS(=O)(=O)c2ccc(-c3ccc(C#N)cc3)c(F)c2)CC1 [HMC-C-07-B, 4′-Cyano-2-fluoro-N-((1s,4s)-4-hydroxy-4-methylcyclohexyl)-[1,1′-biphenyl]-4-sulfonamide]
[1]
  IC50: > 50 µM
[2]; male, Han Wistar, iv, 5 mg/kg, rats, footnote (3): i.v. samples at 0.03, 0.1, 0.167, 0.25, 0.5, 1, 2, 4, 6, 8, 24 hours
  bioavailability: 86%
[2]; male, Han Wistar, rats, footnotes (1)(2): 5% DMSO/10% solutol in saline for both routes
  half-life: 9.7 h
[2]; male, Han Wistar, rats, study of footnote (3)
  half-life: 9 h
[2]; male, Han Wistar, rats, footnotes (1)(2): 5% DMSO/10% solutol in saline for both routes, sampling incl. 23 and 24 hours, oral 10 mg/kg
  bioavailability: 100%
[2]; rats, 1 mg/kg i.v., footnote (3): i.v. samples at 0.03, 0.1, 0.167, 0.25, 0.5, 1, 2, 4, 6, 8, 24 hours
  i.v. AUC: 11627 ng/mL/min
[2]; rats, 5 mg/kg orally, study of footnote (3)
  p.o. AUC: 39463 ng/mL/min
[2]; rats, footnotes (1)(2)(5): dosed at 10 mg/kg orally in 5% DMSO/10% solutol in saline
  p.o. AUC (ng/mL/min): 146299 ^(5) ng/mL/min
[2]; rats, footnotes (1)(2): 1 mg/kg i.v. in 5% DMSO/10% solutol in saline, sampling incl. 23 and 24 hours
  i.v. AUC: 24072 ng/mL/min
[3]; 0.3 mg/kg/day
  % inhibition of disease: 16%
[3]; 3 mg/kg/day
  % inhibition of disease: 56%
[3]; compared with Etanercept (10 mg/kg s.c.), FIG. 1 and 2
  signs and symptoms of disease (in words): able to reduce signs and symptoms of disease in mice with collagen-induced arthritis to a similar extent as the clinically utilised treatment, Etanercept

## C[C@]1(O)CC[C@H](NS(=O)(=O)c2ccc(-c3ccc(Cl)cc3C#N)c(F)c2)CC1 [HMC-C-08-A, 4′-Chloro-2′-cyano-2-fluoro-N-((1r,4r)-4-hydroxy-4-methylcyclohexyl)-[1,1′-biphenyl]-4-sulfonamide]
[1]
  IC50: 29 µM

## C[C@]1(O)CC[C@H](NS(=O)(=O)c2ccc(-c3ccc(C#N)cc3Cl)cc2)CC1 [HMC-C-09-A, 2′-Chloro-4′-cyano-N-((1r,4r)-4-hydroxy-4-methylcyclohexyl)-[1,1′-biphenyl]-4-sulfonamide]
[1]
  IC50: 33 µM

## C[C@]1(O)CC[C@@H](NS(=O)(=O)c2ccc(-c3cc(F)c(F)cc3F)cc2)CC1 [HMC-C-10-B, 2′,4′,5′-Trifluoro-N-((1s,4s)-4-hydroxy-4-methylcyclohexyl)-[1,1′-biphenyl]-4-sulfonamide]
[1]
  IC50: 9.2 µM

## C[C@]1(O)CC[C@H](NS(=O)(=O)c2ccc(-c3ccc(Cl)cc3C#N)c(Cl)c2)CC1 [HMC-C-11-A, 2,4′-Dichloro-2′-cyano-N-((1r,4r)-4-hydroxy-4-methylcyclohexyl)-[1,1′-biphenyl]-4-sulfonamide]
[1]
  IC50: 12 µM

## C[C@]1(O)CC[C@H](NS(=O)(=O)c2ccc(-c3ncc(Cl)cc3C#N)cc2)CC1 [HMC-N-05-A, 4-(5-Chloro-3-cyanopyridin-2-yl)-N-((1r,4r)-4-hydroxy-4-methylcyclohexyl)benzenesulfonamide]
[1]
  IC50: > 50 µM
[2]; male, Han Wistar, 5 mg/kg, rats, footnote (1): 5% DMSO/10% solutol in saline for both oral and intravenous routes
  bioavailability: 88%
[2]; male, Han Wistar, rats, footnote (1): 5% DMSO/10% solutol in saline for both routes
  half-life: 0.8 h
[2]; rats, 1 mg/kg i.v., footnote (1): 5% DMSO/10% solutol in saline
  i.v. AUC: 891 ng/mL/min
[2]; rats, 5 mg/kg orally, footnote (1): 5% DMSO/10% solutol in saline
  p.o. AUC: 3937 ng/mL/min
